Data on 40 compounds can be found in ChEMBL document CHEMBL1201862, “PubChem BioAssay data set” (2004).

Calls of active or inactive are those of the source. Bounds are passed on as bounds.

Some targets named below: Cytochrome P450 2D6 (Homo sapiens, UniProt P10635); Cytochrome P450 3A4 (Homo sapiens, UniProt P08684); Cytochrome P450 2C9 (Homo sapiens, UniProt P11712).
Data set [1] can be described thus: Luminescence Cell-Based Dose Confirmation HTS to Identify Activators of 5'UTR Stem-Loop Driven Alpha-Synuclein mRNA Translation in H4 Neuroglioblastoma Cells. [Related pubchem assays: 1829 (Project Summary), 1814 (Primary HTS)]. It is filed as functional.
Data set [2] can be described thus: Luminescence Cell-Based Dose Response HTS to Identify Activators of Luciferase Translation or Activity in H4 […] Cells. [Related pubchem assays: 1829 (Project Summary), 1814 (Primary HTS)]. The data set is classed as functional.
A further data set relates to H4. The experiment in a line: Luminescence Cell-Based Dose Response HTS to Identify Activators of 5'UTR Stem-Loop Driven Prion Protein mRNA Translation in H4 Neuroglioblastoma Cells. [Related pubchem assays: 1829 (Project Summary), 1814 (Primary HTS)]. It is filed as functional. To be noted: Homo sapiens.
In the next data set the target is T1, Cytochrome P450 1A2 (Homo sapiens, UniProt P05177).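 Further: PubChem cytochrome P450 panel assay, CYP1A2 panel member.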
T1 sequence (P05177 whole entry): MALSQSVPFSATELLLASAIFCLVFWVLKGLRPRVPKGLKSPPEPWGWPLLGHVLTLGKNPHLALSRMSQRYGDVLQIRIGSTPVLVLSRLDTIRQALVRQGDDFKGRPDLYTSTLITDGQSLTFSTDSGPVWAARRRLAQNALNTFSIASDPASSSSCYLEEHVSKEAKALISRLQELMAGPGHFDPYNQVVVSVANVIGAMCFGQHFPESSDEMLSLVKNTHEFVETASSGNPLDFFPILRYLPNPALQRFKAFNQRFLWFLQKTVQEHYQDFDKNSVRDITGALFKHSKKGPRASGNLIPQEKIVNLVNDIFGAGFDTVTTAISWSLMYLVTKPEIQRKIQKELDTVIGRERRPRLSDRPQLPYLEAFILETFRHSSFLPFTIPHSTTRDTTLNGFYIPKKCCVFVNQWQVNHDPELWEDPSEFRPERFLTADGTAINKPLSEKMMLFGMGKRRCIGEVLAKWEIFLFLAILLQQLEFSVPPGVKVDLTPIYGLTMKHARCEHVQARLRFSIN

Data set [3] can be described thus: NIH-3T3 fibroblast cytotoxicity, dose response, cytotoxicity control, cell-based, fluorescence, Alamar Blue, secondary assay (AID 2327).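 Further: NIH-3T3 mouse fibroblasts cultured with fluconazole at 8 µg/mL.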 The data set is classed as functional.
Data set [4] can be described thus: fluconazole-exposed Candida albicans growth modulators – fluorescence, retest, confirmation (AID 2467). It is filed as functional, cell-based.
Data set [5] addresses T2, Corticotropin-releasing factor receptor 2/Corticotropin-releasing factor-binding protein (Homo sapiens, UniProt P24387+Q13324).
T2 sequence (Q13324 whole entry): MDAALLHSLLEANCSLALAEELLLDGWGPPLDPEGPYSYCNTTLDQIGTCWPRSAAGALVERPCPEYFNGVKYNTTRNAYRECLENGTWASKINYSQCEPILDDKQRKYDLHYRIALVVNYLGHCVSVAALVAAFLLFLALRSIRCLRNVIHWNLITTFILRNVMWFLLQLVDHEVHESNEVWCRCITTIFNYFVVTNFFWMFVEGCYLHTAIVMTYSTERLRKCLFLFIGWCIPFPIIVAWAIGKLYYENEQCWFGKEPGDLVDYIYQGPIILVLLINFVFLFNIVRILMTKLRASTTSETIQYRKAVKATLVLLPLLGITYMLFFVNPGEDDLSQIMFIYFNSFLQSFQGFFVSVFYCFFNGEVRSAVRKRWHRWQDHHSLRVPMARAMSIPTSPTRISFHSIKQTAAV
T2 sequence (P24387 whole entry): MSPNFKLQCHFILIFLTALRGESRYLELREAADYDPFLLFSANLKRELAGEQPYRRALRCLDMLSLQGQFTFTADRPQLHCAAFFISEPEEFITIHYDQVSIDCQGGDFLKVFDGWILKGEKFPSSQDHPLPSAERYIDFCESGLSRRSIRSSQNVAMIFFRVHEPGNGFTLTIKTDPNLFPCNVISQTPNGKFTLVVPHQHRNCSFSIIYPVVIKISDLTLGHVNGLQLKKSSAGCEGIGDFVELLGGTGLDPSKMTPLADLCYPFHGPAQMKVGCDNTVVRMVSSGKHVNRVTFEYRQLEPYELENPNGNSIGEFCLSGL
The experiment in a line: Dose Response confirmation of uHTS hits for small molecule antagonists of the CRF-binding protein and CRF-R2 receptor complex. It is filed as functional. Particulars: read-out: IC50_Mean.

Data set [6] concerns the target T2, Corticotropin-releasing factor receptor 2/Corticotropin-releasing factor-binding protein. The experiment in a line: activators of CRF receptor 2 with binding protein – uHTS hits, confirmation (AID 602473). The data set is classed as functional. Particulars: read-out: EC50_Mean.
In data set [7] the test system is Streptococcus sp. 'group A'. The experiment in a line: Streptococcus pyogenes SK(-)GAS viability under kanamycin – luminescence, BacTiterGlo, confirmation, counter-screen for streptokinase expression inhibitor project, dose response (AID 1900). It is filed as functional, organism-based.
In another data set the test system is Streptococcus. In words: GAS UMAA2166 growth inhibition – luminescence, BacTiterGlo, counter-screen for streptokinase expression inhibitor project, dose response (AID 1915).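 Further: potency for reduction of bacterial viability or growth.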 It is filed as functional, organism-based.
In the next data set the target is Cytochrome P450 2C19 (Homo sapiens, UniProt P33261). In words: Cytochrome panel assay with activity outcomes. Panel member name: p450-cyp2c19 Compounds with AC50 equal or less than 10 uM are considered active. The data set is classed as functional.
Cytochrome P450 2C19, sequence (P33261 whole entry): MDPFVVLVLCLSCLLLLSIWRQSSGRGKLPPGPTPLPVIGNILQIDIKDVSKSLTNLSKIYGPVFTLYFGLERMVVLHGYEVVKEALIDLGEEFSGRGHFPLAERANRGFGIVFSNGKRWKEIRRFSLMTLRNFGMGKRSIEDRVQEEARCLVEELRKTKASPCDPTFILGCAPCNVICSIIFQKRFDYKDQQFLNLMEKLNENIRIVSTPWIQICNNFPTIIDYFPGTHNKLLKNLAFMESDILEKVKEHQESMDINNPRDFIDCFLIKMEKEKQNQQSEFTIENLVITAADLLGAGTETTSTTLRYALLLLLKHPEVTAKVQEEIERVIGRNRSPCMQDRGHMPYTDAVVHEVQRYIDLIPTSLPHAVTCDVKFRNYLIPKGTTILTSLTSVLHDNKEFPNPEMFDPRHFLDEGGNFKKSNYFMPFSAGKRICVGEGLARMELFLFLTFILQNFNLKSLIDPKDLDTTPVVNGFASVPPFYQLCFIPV

Cytochrome P450 2D6, sequence (P10635 whole entry): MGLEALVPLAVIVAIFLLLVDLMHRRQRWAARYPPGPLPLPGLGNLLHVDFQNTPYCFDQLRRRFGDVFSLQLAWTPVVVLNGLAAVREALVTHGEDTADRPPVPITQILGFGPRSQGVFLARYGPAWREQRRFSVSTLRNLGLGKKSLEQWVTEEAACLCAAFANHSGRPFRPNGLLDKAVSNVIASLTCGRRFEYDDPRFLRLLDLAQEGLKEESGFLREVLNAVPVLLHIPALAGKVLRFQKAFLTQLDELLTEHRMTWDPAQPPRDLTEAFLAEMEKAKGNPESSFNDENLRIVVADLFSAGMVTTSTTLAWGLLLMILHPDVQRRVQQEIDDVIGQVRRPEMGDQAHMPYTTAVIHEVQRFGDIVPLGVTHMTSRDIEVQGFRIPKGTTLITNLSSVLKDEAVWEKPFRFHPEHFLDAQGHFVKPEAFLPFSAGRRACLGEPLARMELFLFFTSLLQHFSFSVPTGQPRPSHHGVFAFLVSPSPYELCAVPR
Cytochrome P450 3A4, sequence (P08684 whole entry): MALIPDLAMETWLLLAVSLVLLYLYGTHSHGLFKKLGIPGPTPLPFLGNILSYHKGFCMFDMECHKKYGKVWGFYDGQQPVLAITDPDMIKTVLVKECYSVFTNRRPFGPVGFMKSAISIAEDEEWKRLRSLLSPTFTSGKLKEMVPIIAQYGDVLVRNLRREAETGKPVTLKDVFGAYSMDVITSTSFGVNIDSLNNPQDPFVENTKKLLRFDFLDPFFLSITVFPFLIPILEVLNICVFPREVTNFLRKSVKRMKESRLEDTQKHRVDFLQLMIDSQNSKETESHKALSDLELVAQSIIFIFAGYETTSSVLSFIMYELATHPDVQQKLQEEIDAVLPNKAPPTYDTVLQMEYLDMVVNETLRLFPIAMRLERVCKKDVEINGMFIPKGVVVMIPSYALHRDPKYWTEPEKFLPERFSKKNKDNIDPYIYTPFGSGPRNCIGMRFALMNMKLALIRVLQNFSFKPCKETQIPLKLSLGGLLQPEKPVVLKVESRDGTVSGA
Cytochrome P450 2C9, sequence (P11712 whole entry): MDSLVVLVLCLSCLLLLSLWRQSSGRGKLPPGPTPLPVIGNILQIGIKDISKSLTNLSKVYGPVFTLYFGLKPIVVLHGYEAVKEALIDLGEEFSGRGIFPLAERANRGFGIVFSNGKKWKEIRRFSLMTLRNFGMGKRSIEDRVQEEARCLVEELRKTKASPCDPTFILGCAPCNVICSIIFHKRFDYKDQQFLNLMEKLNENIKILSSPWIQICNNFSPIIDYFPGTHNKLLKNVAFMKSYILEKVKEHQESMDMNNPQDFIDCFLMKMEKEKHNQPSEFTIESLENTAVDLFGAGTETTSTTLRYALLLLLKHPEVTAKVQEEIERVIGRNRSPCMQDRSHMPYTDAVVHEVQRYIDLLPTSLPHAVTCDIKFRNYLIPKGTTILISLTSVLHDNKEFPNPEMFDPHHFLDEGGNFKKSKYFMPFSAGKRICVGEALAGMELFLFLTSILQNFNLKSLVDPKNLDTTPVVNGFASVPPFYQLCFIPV

For `Cc1noc(C)c1C(=O)N1CCC2(CC1)CCN(C(c1ccccc1)c1ccccc1)CC2`, the concentration at half-maximal activity (AC50) on Cytochrome P450 2D6 is 25.1 µM (inconclusive).
As for `COc1ccc(C2C(C#N)=C(N)Nc3nc4ccccc4n32)cc1` (stereo unspecified), the EC50 is 12.1 µM (active) in data set [1], 16.7 µM (active) in data set [2] and 32.9 µM (active) in the data set on H4.
With `O=C(NCc1ccccc1)C12CN(Cc3ccccc3)CC1C(c1cccc([N+](=O)[O-])c1)=NO2` (stereo unspecified), the AC50 at Cytochrome P450 1A2 is 15.8 µM (inconclusive).
With `O=C(CSCc1cccc(CSCC(=O)Nc2ccccc2)n1)Nc1ccccc1`, the results for the EC50 in [3] and in [4] were > 150 µM (inactive) and > 38 µM (not active), respectively.
With `O=C(CSc1nc2ccccc2c(=O)n1Cc1ccccc1)NCc1ccco1`, the AC50 on Cytochrome P450 1A2 is 1.41 µM (inconclusive); at Cytochrome P450 3A4, 39.8 µM (inconclusive).
Consider `COC(=O)[C@@]1(Cc2ccccc2)[C@H]2c3cc(C(=O)N4CCCC4)n(Cc4ccc(C)o4)c3C[C@H]2CN1C(=O)c1ccccc1`, for which the half-maximal activity concentration (AC50) at Cytochrome P450 2D6 was 39.8 µM (inconclusive); on Cytochrome P450 1A2, 12.6 µM (inconclusive).
`Cc1cc(O)c(C(C)C)cc1CN1CCCCC1`: the results for the AC50 at Cytochrome P450 2D6 and on Cytochrome P450 1A2 were 3.98 µM (inconclusive) and 1 µM (inconclusive), respectively.
Regarding `CC(C)(CNC(=O)c1ccc(Br)o1)CNC(=O)c1ccc(Br)o1`, in data set [5], the IC50 is > 47.1 µM (inactive). Besides, in [6], the EC50 was > 53 µM (inactive).
For `Cc1nc2nc(NC(=O)c3ccco3)nn2c(C)c1Cl`, the results for the EC50 (in [1]; in data set [2]; in the data set on H4) were 0.817 µM (active), 14.3 µM (active) and 15.5 µM (active), respectively.
On to `CCOc1ccccc1NC(=O)CNC(=O)Cc1ccccc1`, for which the IC50 in data set [5] is > 47.1 µM (inactive). For the same compound, in [6], the EC50 was > 53 µM (inactive).
`Cc1cc(S(=O)(=O)NC2CCCCC2)ccc1OCC(=O)NCC1CCCO1` (stereo unspecified): the IC50 in data set [5] was > 47.1 µM (inactive). The EC50 in [6] is > 53 µM (inactive).
`O=C(Nc1ccc2c(c1)OCCO2)c1cc2sccc2n1Cc1ccc(F)cc1`: the EC50 is 0.94 µM (active) in data set [1], 3.85 µM (active) in data set [2] and > 120 µM (not active) with H4.
Turning to `COC[C@H]1OC(=O)c2coc3c2[C@@]1(C)C1=C(C3=O)[C@H]2CCC(=O)[C@@]2(C)C[C@H]1OC(C)=O`, the AC50 at Cytochrome P450 1A2 was 31.6 µM (inconclusive); on Cytochrome P450 3A4, 7.94 µM (inconclusive).
Consider `COc1ccc(/C=C/c2nc(O)cc(-c3ccccc3)n2)cc1`, for which the IC50 in data set [5] is > 47.1 µM (inactive). Moreover, the EC50 in data set [6] is > 53 µM (inactive).
As to `NS(=O)(=O)c1cccc(NC(S)=NCc2ccc3c(c2)OCO3)c1`, the EC50 was > 160 µM (inactive) in [3] and > 38 µM (not active) in data set [4].
For the compound `O=C(Nc1ccccc1)N1CCCC2(CCN(C(=O)Oc3ccccc3)CC2)C1`, the results for the AC50 at Cytochrome P450 2D6 and on Cytochrome P450 1A2 were 20 µM (inconclusive) and 25.1 µM (inconclusive), respectively.
Regarding `CC(C)(C)c1ccc(OCC(=O)NNC(=S)NC(=O)c2ccco2)c(Br)c1`, the EC50 in data set [7] is < 0.06 µM (active); with Streptococcus, 0.1 µM (active).
As to `CCOC(=O)N1CCN(S(=O)(=O)c2ccc(C)c(C)c2C)CC1`, the IC50 in data set [5] is > 47.1 µM (inactive). For the same compound, in [6], the EC50 is > 53 µM (inactive).
Take `Cc1ccc(NC(=O)NNC(=O)c2cc3ccccc3cc2O)c(C)c1`: the EC50 in data set [3] was > 150 µM (inconclusive).
`COc1cc(SC)ccc1C(=O)OCC(=O)NC1CC1`: the values for the EC50 in data set [3] and in data set [4] were > 150 µM (inactive) and > 38 µM (not active), respectively.
For `COc1ccc(Cc2c(N)nc(N)nc2N)cc1`, the AC50 on Cytochrome P450 2D6 was 17.8 µM (inconclusive).
With `Cc1nc2cnc(Oc3ccccc3)nc2n(CCc2ccccc2)c1=O`, the AC50 is 3.16 µM (inconclusive) at Cytochrome P450 1A2 and 20 µM (inconclusive) on Cytochrome P450 3A4.
Regarding `O=C(Nc1nnc(S(=O)(=O)N2CCOCC2)s1)c1cccc(F)c1`, the results for the EC50 (in [1]; in data set [2]; with H4) were 17.8 µM (active), 9.48 µM (active) and 14.6 µM (active), respectively.
Consider `COc1cc2c(cc1NC(=O)c1ccc3c(c1)OCO3)oc1ccccc12`, for which the EC50 is 5.37 µM (active) in data set [1], 43.1 µM (active) in data set [2] and 85.3 µM (active) with H4.
For `O=C(Nc1ccccc1)C(Cc1ccccc1)NC(=O)C12CC3CC(CC(C3)C1)C2` (stereo unspecified), on Cytochrome P450 2D6, the AC50 was 0.00794 µM (inconclusive).
Turning to `CC1(O)c2ccccc2C(=O)N1CCc1ccccc1F` (stereo unspecified), the IC50 in data set [5] was > 47.1 µM (inactive). In addition, the EC50 in data set [6] was > 53 µM (inactive). Besides, the concentration at half-maximal activity (AC50) on Cytochrome P450 2D6 is 28.2 µM (inconclusive); at Cytochrome P450 1A2, 20 µM (inconclusive).
In the case of `O=C(O)CS(=O)(=O)C(c1ccccc1)c1ccccc1`, the AC50 entry at Cytochrome P450 2C19 is given as “inconclusive”.
As to `COc1cccc(OCc2nc3ccccc3c(=O)n2N)c1`, the EC50 in [3] was > 150 µM (inconclusive); in [4], 10.1 µM (active).
Turning to `CCOc1nc(NCc2ccco2)nc(Nc2ccccc2F)n1`, the EC50 in data set [1] is 6.54 µM (active); in [2], 12.9 µM (active); in the data set on H4, 69.9 µM (active).
Take `Cc1ccc(C)c(C(=N)c2ccccc2Cc2ccccc2)c1`: on Cytochrome P450 2D6, the half-maximal activity concentration (AC50) is 3.16 µM (inconclusive).
Turning to `COCCCn1c(SCC(=O)Nc2ccccc2F)nnc1-c1ccoc1C`, the IC50 in [5] was > 47.1 µM (inactive). Besides, the EC50 in data set [6] was > 53 µM (inactive).
As to `CCOC(=O)c1ccc(NC(=O)c2cccc3c2C(=O)N(CC2CCCO2)C3)cc1` (stereo unspecified), the IC50 in data set [5] was > 47.1 µM (inactive). Besides, in data set [6], the EC50 is > 53 µM (inactive).
For the compound `Nc1ccc2nc(SCc3ccc([N+](=O)[O-])cc3)sc2c1`, the EC50 in [3] was > 150 µM (inactive); in [4], > 38 µM (not active).
With `CCN1CCN(CC(=O)N2N=CCC2c2ccccc2)CC1` (stereo unspecified), the IC50 in data set [5] was > 47.1 µM (inactive). In [6], the EC50 was > 53 µM (inactive).
As to `O=C(CC1C(=O)NCCN1C(=O)Nc1ccccc1)Nc1ccc2c(c1)OCO2` (stereo unspecified), the IC50 in data set [5] was > 47.1 µM (inactive). For the same compound, the EC50 in data set [6] is > 53 µM (inactive).
For the compound `CCOC(=O)c1ccccc1OCc1cc(/C=N/n2cnnc2)ccc1OC`, the EC50 was > 150 µM (inactive) in data set [3] and > 38 µM (not active) in [4]. Besides, the half-maximal activity concentration (AC50) on Cytochrome P450 1A2 was 1.26 µM (inconclusive).
Turning to `O=C(N/N=C/c1ccc(N2CCOCC2)s1)c1ccccc1Cl`, the EC50 in data set [1] was 20.9 µM (active); in [2] it was 12 µM (active); with H4, 48.6 µM (active).
As for `CCCCc1[nH]nc2c1/C(=N/O)CC(c1ccccc1)C2` (stereo unspecified), the AC50 at Cytochrome P450 2D6 is 14.1 µM (inconclusive).
`COc1ccccc1CNc1ncnc2ccc(-c3cccc(NS(C)(=O)=O)c3)cc12`: the figures for the AC50 on Cytochrome P450 2D6 and at Cytochrome P450 2C9 were 20 µM (inconclusive) and 0.794 µM (inconclusive), respectively.
As to `c1ccc(C2CC2)c(OCC2=NCCN2)c1` [CIRAZOLINE], the half-maximal activity concentration (AC50) at Cytochrome P450 1A2 is 15.8 µM (inconclusive).
